From patent US10238761B1, “Method and an integrated device for an area decontamination process” (NANOMIST SYSTEMS, LLC, priority 2013, dated 2019)
Read-outs that look alike come from different tables or passages of the source.

System: G. Stearothermophilus
Description: Tests were conducted in a 36 m^3 room without carpet (i.e., with tiled floor) and also in a 110 m^3 room with wall-to-wall carpet and configured to simulate a larger room with an attached bathroom with a door opening. Biological indicator (BI) test disks inoculated with 4-log, 5-log and 6-log populations of G. Stearothermophilus prepared by Mesa Labs were used.
BI test disks were placed at various locations within the room and doors and windows and other ventilation to the room was closed. Room temperature was not intentionally controlled, but was maintained at between about 22° C. and 26° C. The test area was pre-conditioned to a relative humidity of about 50%. A predetermined amount of biocide, a 35% hydrogen peroxide vapor, was rapidly injected into the room, with the rate of injection being about 50 g per minute or producing about 17.5 g of HP vapor per minute. The “inactivation time” or time from the initiation of the biocide injection through the residence time was a total of about 10 minutes. The room was then aerated until the concentration of biocide dropped to about 1 ppm. The overall cycle time was then calculated as the time for biocide injection, biocide contact or inactivation time, and the aeration time.

OO [35% HP solution, hydrogen peroxide]
Kill Efficiency (Test 3: 36 m^3 room, injected mass 2.4 g/m^3, HP mass 86.4 g, injection time 12.7 min, injection rate 6.8 g/min (0.19 g/min/m3) of HP): 5-log
Kill Efficiency (Test 4: 36 m^3 room, injected mass 2.4 g/m^3, HP mass 86.4 g, injection time 8.3 min, injection rate 10.4 g/min (0.29 g/min/m3) of HP): 6-log
Kill Efficiency (Test 7: 36 m^3 room, injected mass 2 g/m^3, HP mass 72 g, injection time 12 min, injection rate 6.0 g/min (0.17 g/min/m3) of HP): 5-log
Kill Efficiency (Test 8: 36 m^3 room, injected mass 2 g/m^3, HP mass 72 g, injection time 6.5 min, injection rate 11.1 g/min (0.31 g/min/m3) of HP): 6-log
Kill Efficiency (Test 9: 36 m^3 room, injected mass 2 g/m^3, HP mass 72.7 g, injection time 9.6 min, injection rate 7.6 g/min (0.21 g/min/m3) of HP): 5-log
Kill Efficiency (Test 10: 36 m^3 room, injected mass 2 g/m^3, HP mass 73.1 g, injection time 6.5 min, injection rate 11.2 g/min (0.31 g/min/m3) of HP): 6-log
Kill Efficiency (Test 11: 36 m^3 room, injected mass 2.2 g/m^3, HP mass 79.6 g, injection time 13 min, injection rate 6.1 g/min (0.17 g/min/m3) of HP): 5-log
Kill Efficiency (Test 12: 36 m^3 room, injected mass 2.1 g/m^3, HP mass 74.9 g, injection time 4.3 min, injection rate 17.4 g/min (0.48 g/min/m3) of HP): 6-log
Kill Efficiency (Test A: 36-m^3 room, tile, injected mass 0.6 g/m^3, HP mass 22 g, injection rate 11.4 g/min, injection time 1.8 min, residence time 8.2 min): 4-log
Kill Efficiency (Test B: 36-m^3 room, tile, injected mass 0.7 g/m^3, HP mass 26 g, injection rate 11.0 g/min, injection time 2.4 min, residence time 7.6 min): 5-log
Kill Efficiency (Test C: 36-m^3 room, tile, injected mass 1.7 g/m^3, HP mass 59 g, injection rate 12.3 g/min, injection time 4.8 min, residence time 5.2 min): 6-log
Kill Efficiency (Test D: 100-m^3 room, carpet, second doorway with non-line-of-sight BI, injected mass 0.8 g/m^3, HP mass 91 g, injection rate 13.0 g/min, injection time 7.0 min, residence time 3.0 min): 5-log
Kill Efficiency (Test E: 100-m^3 room, carpet, second doorway with non-line-of-sight BI, injected mass 1.8 g/m^3, HP mass 201 g, injection rate 21.1 g/min, injection time 9.5 min, residence time 0.5 min): 6-log
